Broadly, the MIC is the smallest concentration in the dilution series that meets the test's criterion for growth inhibition.

Each structure is given as a SMILES string. ≈ marks a conversion by molar mass, not a printed value. Where “and” joins values, the source holds several entries; their conditions need not be identical. Equal values may be shown once.

Among the test systems are Staphylococcus aureus; Pseudomonas aeruginosa; Staphylococcus aureus MR; Escherichia coli; Escherichia coli MG1655; Candida albicans; Salmonella typhimurium.
Common to all, as to assay: ≥ marks a high value that may be exact or a test limit, other limits are often not marked, values filed in µg/mL are converted to µM
Experiment [1] concerns Escherichia coli NCTC 10418.
In experiment [2] the test system is Staphylococcus aureus NCTC 10788.
Experiment [3] relates to Staphylococcus aureus ATCC 25923.
Experiment [4] concerns Pseudomonas aeruginosa PAO1.
Experiment [5] relates to Staphylococcus aureus ATCC 29213.
The test system of experiment [6] is Escherichia coli ATCC 35218.
Experiment [7] has as its system Pseudomonas aeruginosa ATCC 27853.
Experiment [8] relates to Staphylococcus aureus KCTC 1621.
The subject of experiment [9] is Pseudomonas aeruginosa KCTC 1637.
Experiment [10] concerns Staphylococcus epidermidis KCTC 1917.
Experiment [11] concerns Escherichia coli KCTC 1682.
Experiment [12] deals with Salmonella typhimurium KCTC 1926.
In experiment [13] the test system is Bacillus subtilis KCTC 3068.

For `CC[C@H](C)[C@H](NC(=O)[C@H](C)NC(=O)[C@H](CC(C)C)NC(=O)[C@H](Cc1c[nH]c2ccccc12)NC(=O)[C@H](CC(C)C)NC(=O)[C@H](C)N)C(=O)N[C@@H](CCCN=C(N)N)C(=O)N[C@@H](CCCCN)C(=O)N[C@@H](CCCN=C(N)N)C(N)=O` [ALWLAIRKR], the MIC against Staphylococcus aureus was 3.55 µM (≈ 4 µg/mL); with Pseudomonas aeruginosa, 8.88 µM (≈ 9.99 µg/mL); with Staphylococcus aureus MR it was at least 35.5 µM; in the experiment with Escherichia coli, 8.88 µM (≈ 9.99 µg/mL).

As for `CC[C@H](C)[C@H](NC(=O)[C@H](C)NC(=O)[C@H](CC(C)C)NC(=O)[C@H](Cc1ccc(O)cc1)NC(=O)[C@H](CC(C)C)NC(=O)[C@H](C)N)C(=O)N[C@@H](CCCN=C(N)N)C(=O)N[C@@H](CCCCN)C(=O)N[C@@H](CCCN=C(N)N)C(N)=O` [ALYLAIRKR], the MIC came to 2.72 µM (≈ 3 µg/mL) in the experiment on Staphylococcus aureus, 3.63 µM (≈ 4 µg/mL) with Pseudomonas aeruginosa, 27.2 µM (≈ 30 µg/mL) with Staphylococcus aureus MR and 3.63 µM (≈ 4 µg/mL) in the experiment with Escherichia coli.

In the case of `CC[C@H](C)[C@H](NC(=O)CNC(=O)[C@H](C)NC(=O)[C@@H](NC(=O)[C@H](C)NC(=O)[C@@H]1CCCN1C(=O)[C@H](CC(C)C)NC(=O)[C@@H](N)Cc1ccccc1)[C@@H](C)CC)C(=O)N[C@@H](CC(C)C)C(=O)N[C@@H](CO)C(=O)N[C@@H](CCC(N)=O)C(=O)N[C@@H](CC(C)C)C(=O)N[C@@H](Cc1ccccc1)C(N)=O` [FLPAIAGILSQLF], the MIC in [1] is at least 50 µM; in experiment [2], at least 200 µM.

Consider `CC[C@H](C)[C@H](NC(=O)CNC(=O)[C@@H]1CCCN1C(=O)[C@H](CC(C)C)NC(=O)[C@@H](N)Cc1ccccc1)C(=O)N[C@@H](CC(C)C)C(=O)N[C@@H](CCCCN)C(=O)N[C@H](C(=O)N[C@@H](C)C(=O)N[C@@H](C)C(=O)N[C@@H](CC(N)=O)C(=O)N[C@H](C(=O)N[C@H](C(=O)N1CCC[C@H]1C(=O)NCC(=O)N[C@H](C(=O)N[C@H](C(=O)N[C@H]1CSSC[C@@H](C(=O)O)NC(=O)[C@H](CCCCN)NC(=O)[C@H](CCCCN)NC(=O)[C@H]([C@@H](C)O)NC(=O)[C@H]([C@@H](C)CC)NC(=O)[C@H](C)NC1=O)[C@@H](C)CC)C(C)C)C(C)C)C(C)C)C(C)C` [FLPGILKVAANVVPGVICAITKKC], for which the MIC was at least 256 µM in experiment [1]; 4 µM and 8 µM in experiment [2].

Consider `CSCC[C@H](NC(=O)[C@@H](NC(=O)[C@H](CCCCN)NC(=O)[C@H](Cc1cnc[nH]1)NC(=O)[C@H](CC(C)C)NC(=O)CN)C(C)C)C(=O)N[C@@H](CCCN=C(N)N)C(=O)N[C@@H](CCC(=O)O)C(=O)N[C@H](C(=O)N[C@@H](CC(C)C)C(=O)NCC(=O)N[C@@H](Cc1ccc(O)cc1)C(=O)N[C@@H](CCC(=O)O)C(=O)N[C@@H](CCCN=C(N)N)C(=O)N[C@@H](CC(N)=O)C(=O)N[C@@H](CO)C(=O)N[C@@H](Cc1ccc(O)cc1)C(=O)N[C@@H](CCCCN)C(N)=O)C(C)C` [GLHKVMREVLGYERNSYK], for which the minimum inhibitory concentration (MIC) in experiment [3] is over 128 µM; in the experiment on Escherichia coli MG1655, at least 128 µM; in the experiment on Candida albicans, over 128 µM; in experiment [4] it was over 128 µM.

On to `CC[C@H](C)[C@H](NC(=O)[C@@H](NC(=O)[C@@H]1CCCN1C(=O)[C@@H](NC(=O)[C@@H](NC(=O)[C@H](Cc1cnc[nH]1)NC(=O)[C@@H]1CCCN1C(=O)[C@H](CC(C)C)NC(=O)[C@@H](NC(=O)[C@H](Cc1cnc[nH]1)NC(=O)[C@H](CCCCN)NC(=O)[C@H](C)NC(=O)[C@@H](NC(=O)[C@H](CO)NC(=O)CNC(=O)[C@H](CC(C)C)NC(=O)[C@@H](NC(=O)[C@H](CO)NC(=O)[C@H](CC(C)C)NC(=O)[C@H](CC(C)C)NC(=O)CN)C(C)C)C(C)C)C(C)C)C(C)C)C(C)C)C(C)C)C(=O)N[C@@H](C)C(=O)N[C@@H](CCC(=O)O)C(=O)N[C@@H](Cc1cnc[nH]1)C(=O)N[C@@H](CC(C)C)C(N)=O` [GLLSVLGSVAKHVLPHVVPVIAEHL], for which the MIC against Escherichia coli MG1655 is at least 120 µM; in [5], 8 µM (≈ 20.7 µg/mL).

As for `CC[C@H](C)[C@H](NC(C)=O)C(=O)N[C@@H](CC(=O)O)C(=O)NCC(=O)N[C@@H](CC(C)C)C(=O)N[C@@H](CCCCN)C(=O)N[C@@H](C)C(=O)N[C@H](C(=O)N[C@@H](Cc1c[nH]c2ccccc12)C(=O)N[C@@H](CCCCN)C(=O)N[C@@H](CCCCN)C(=O)N[C@H](C(=O)N[C@@H](C)C(=O)N[C@@H](CC(=O)O)C(=O)N[C@@H](CC(C)C)C(=O)N[C@@H](CC(C)C)C(=O)N[C@@H](CCCCN)C(=O)N[C@@H](CC(N)=O)C(=O)N[C@H](C(N)=O)[C@@H](C)O)C(C)C)[C@@H](C)CC` [IDGLKAIWKKVADLLKNT], the MIC in [3] is over 72.5 µM; in experiment [6], 9 µM (≈ 18.6 µg/mL); in [7] it was 72.5 µM (≈ 150 µg/mL).

In the case of `CC[C@H](C)[C@H](N)C(=O)N[C@@H](CC(C)C)C(=O)N1CCC[C@H]1C(=O)N[C@@H](Cc1c[nH]c2ccccc12)C(=O)N[C@@H](CCCCN)C(=O)N[C@@H](Cc1c[nH]c2ccccc12)C(=O)N1CCC[C@H]1C(=O)N[C@@H](Cc1c[nH]c2ccccc12)C(=O)N[C@@H](C)C(=O)N1CCC[C@H]1C(=O)N[C@@H](C)C(=O)N[C@@H](CCCN=C(N)N)C(=O)N[C@@H](CCCN=C(N)N)C(N)=O` [ILPWKWPWAPARR], the MIC in the experiment on Staphylococcus aureus came out at 11.9 µM (≈ 20 µg/mL); against Pseudomonas aeruginosa it was 23.9 µM (≈ 40 µg/mL); with Salmonella typhimurium, 11.9 µM (≈ 20 µg/mL); against Candida albicans it was 0.0012 µM (≈ 0.00201 µg/mL); against Escherichia coli, 119 µM (≈ 200 µg/mL).

`C[C@@H](O)[C@H](NC(=O)[C@H](CCCCN)NC(=O)[C@H](Cc1c[nH]c2ccccc12)NC(=O)[C@H](Cc1c[nH]c2ccccc12)NC(=O)[C@@H](NC(=O)[C@H](CCCCN)NC(=O)[C@@H](N)CCCCN)[C@@H](C)O)C(=O)N[C@@H](Cc1c[nH]c2ccccc12)C(=O)N[C@@H](Cc1c[nH]c2ccccc12)C(=O)N[C@H](C(=O)N[C@@H](CCCCN)C(=O)N[C@@H](Cc1c[nH]c2ccccc12)C(=O)N[C@@H](CO)C(=O)N[C@@H](CCC(N)=O)C(=O)N1CCC[C@H]1C(=O)N[C@@H](CCCCN)C(=O)N[C@@H](CCCCN)C(=O)O)[C@@H](C)O` [KKTWWKTWWTKWSQPKK]: the MIC in [8] was 2 µM (≈ 4.67 µg/mL); in experiment [9] it was 4 µM (≈ 9.34 µg/mL); in experiment [10], 2 µM (≈ 4.67 µg/mL); in [11] it was 2 µM (≈ 4.67 µg/mL); in [12], 2 µM (≈ 4.67 µg/mL); in [13] it was 2 µM (≈ 4.67 µg/mL).

On to `CC[C@H](C)[C@H](NC(=O)[C@H](CCCN=C(N)N)NC(=O)[C@@H]1CCCN1C(=O)[C@H](CC(C)C)NC(=O)[C@@H](N)CCCN=C(N)N)C(=O)N[C@@H](Cc1c[nH]c2ccccc12)C(=O)N[C@@H](Cc1c[nH]c2ccccc12)C(=O)N[C@H](C(=O)N[C@@H](CCCN=C(N)N)C(=O)N[C@H](C(=O)N1CCC[C@H]1C(=O)N[C@@H](CCCN=C(N)N)C(N)=O)C(C)C)[C@@H](C)CC` [RLPRIWWIRVPR], for which the MIC in [8] is 7.58 µM (≈ 12.5 µg/mL); in [9], 3.79 µM (≈ 6.25 µg/mL); in [10] it was 3.79 µM (≈ 6.25 µg/mL); in [11], 7.58 µM (≈ 12.5 µg/mL); in experiment [12], 1.9 µM (≈ 3.13 µg/mL); in experiment [13] it was 3.79 µM (≈ 6.25 µg/mL).

For the compound `CC(C)C[C@H](NC(=O)[C@@H](NC(=O)[C@H](CCCN=C(N)N)NC(=O)[C@H](CCCN=C(N)N)NC(=O)[C@@H](NC(=O)[C@@H](NC(=O)[C@H](CCCN=C(N)N)NC(=O)[C@H](CCCN=C(N)N)NC(=O)[C@@H](NC(=O)[C@H](CC(C)C)NC(=O)[C@@H](N)CCCN=C(N)N)C(C)C)C(C)C)C(C)C)C(C)C)C(=O)N[C@@H](CCCN=C(N)N)C(N)=O` [RLVRRVVRRVLR], the MIC against Staphylococcus aureus was 60.8 µM (≈ 95.9 µg/mL); in the experiment with Staphylococcus aureus MR, at least 63.4 µM.

For `CC(C)C[C@H](NC(=O)[C@H](Cc1ccccc1)NC(=O)[C@H](CCCN=C(N)N)NC(=O)[C@H](CCCCN)NC(=O)[C@H](Cc1c[nH]c2ccccc12)NC(=O)[C@H](CCCN=C(N)N)NC(=O)[C@H](CCC(N)=O)NC(=O)[C@@H](NC(=O)[C@H](Cc1c[nH]c2ccccc12)NC(=O)[C@H](CCCN=C(N)N)NC(=O)[C@H](CCCCN)NC(=O)[C@@H](N)Cc1c[nH]c2ccccc12)C(C)C)C(=O)N[C@@H](CCCN=C(N)N)C(N)=O` [WKRWVQRWKRFLR], the MIC worked out at 2 µM (≈ 3.89 µg/mL) in [8]; 16 µM (≈ 31.1 µg/mL) in experiment [9]; 4 µM (≈ 7.78 µg/mL) in experiment [10]; 4 µM (≈ 7.78 µg/mL) in [11]; 2 µM (≈ 3.89 µg/mL) in [12]; 4 µM (≈ 7.78 µg/mL) in [13].

The values are drawn from DBAASP.
